pEC50: −log10 of the molar value. Read-outs that look alike come from different tables or passages of the source.
What was measured:
[1] = 13-membered ring
[2] = molecular target: CFTR-mediated chloride transport in human intestinal epithelial enteroid cells (Homo sapiens, UniProt P13569); test: Membrane potential dye, Enteroid Assay B; type: cell-based; details: for Ent. B Max Activity: % of chloride transport of triple combination control: 1 μM (14S)-8-[3-(2-{Dispiro[2.0.2.1]heptan-7-yl}ethoxy)-1H-pyrazol-1-yl]-12,12-dimethyl-...-2,2,4-trione, 3 μM tezacaftor, 300 nM acute ivacaftor; for pEC50: enteroid cells, 18-24 hours incubation, acute 10 μM forskolin and 300 nM ivacaftor, read-out: Ent. B EC50
Procedure: Base medium (ADF+++) consisted of Advanced DMEM/Ham's F12, 2 mM Glutamax, 10 mM HEPES, […] penicillin/streptomycin.
Intestinal enteroid maintenance medium (IEMM) consisted of ADF+++, 1×B27 supplement, 1×N2 supplement, 1.25 mM N-acetyl cysteine, 10 mM Nicotinamide, 50 ng/mL hEGF, 10 nM Gastrin, 1 μg/mL hR-spondin-1, 100 ng/mL hNoggin, TGF-b type 1 inhibitor A-83-01, 100 μg/mL Primocin, 10 μM P38 MAPK inhibitor SB202190.
Bath 1 Buffer consisted of 1 mM MgCl2, 160 mM NaCl, 4.5 mM KCl, 10 mM HEPES, 10 mM Glucose, 2 mM CaCl2).
Chloride Free Buffer consisted of 1 mM Magnesium Gluconate, 2 mM Calcium Gluconate, 4.5 mM Potassium Gluconate, 160 mM Sodium Gluconate, 10 mM HEPES, 10 mM Glucose.
BathI Dye Solution consisted of Bath 1 Buffer, 0.04% Pluronic F127, 20 μM Methyl Oxonol, 30 μM CaCCinh-A01, 30 μM Chicago Sky Blue.
Chloride Free Dye Solution consisted of Chloride Free Buffer, 0.04% Pluronic F127, 20 μM Methyl Oxonol, 30 μM CaCCinh-A01, 30 μM Chicago Sky Blue.
Chloride Free Dye Stimulation Solution consisted of Chloride Free Dye Solution, 10 μM forskolin, 100 μM IBMX, and 300 nM Compound III.
Human intestinal epithelial enteroid cells were obtained from the Hubrecht Institute for Developmental Biology and Stem Cell Research, Utrecht, The Netherlands and expanded in T-Flasks as previously described (Dekkers J F, Wiegerinck C L, de Jonge H R, Bronsveld I, Janssens H M, de Winter-de Groot K M, Brandsma A M, de Jong N W M, Bijvelds M J C, Scholte B J, Nieuwenhuis E E S, van den Brink S, Clevers H, van der Ent C K, Middendorp S and M Beekman J M. A functional CFTR assay using primary cystic fibrosis intestinal organoids. Nat Med. 2013 July; 19(7):939-45.).
Cells were recovered in cell recovery solution, collected by centrifugation at 650 rpm for 5 minutes at 4° C., resuspended in TrypLE and incubated for 5 minutes at 37° C. Cells were then collected by centrifugation at 650 rpm for 5 minutes at 4° C. and resuspended in IEMM containing 10 μM ROCK inhibitor (RI). The cell suspension was passed through a 40 μm cell strainer and resuspended at 1×10^6 cells/mL in IEMM containing 10 μM RI. Cells were seeded at 5000 cells/well into multi-well plates and incubated for overnight at 37° C., 95% humidity and 5% CO2 prior to assay.
Enteroid cells were incubated with test compound in IEMM for 18-24 hours at 37° C., 95% humidity, and 5% C02. […] Briefly, cells were washed 5 times in Bath 1 Buffer. Bath 1 Dye Solution was added and the cells were incubated for 25 minutes at room temperature. Following dye incubation, cells were washed 3 times in Chloride Free Dye Solution. Chloride transport was initiated by addition of Chloride Free Dye Stimulation Solution and the fluorescence signal was read for 15 minutes. […] Chloride transport was then expressed as a percentage of the chloride transport following treatment with 1 μM (14S)-8-[3-(2-{Dispiro[2.0.2.1]heptan-7-yl}ethoxy)-1H-pyrazol-1-yl]-12,12-dimethyl-2λ^6-thia-3,9,11,18,23-pentaazatetracyclo[17.3.1.111,14.05,10]tetracosa-1(22),5,7,9,19(23),20-hexaene-2,2,4-trione, 3 μM (R)-1-(2,2-difluorobenzo[d][1,3]dioxol-5-yl)-N-(1-(2,3-dihydroxypropyl)-6-fluoro-2-(1-hydroxy-2-methylpropan-2-yl)-1H-indol-5-yl)cyclopropanecarboxamide and 300 nM acute N-[2,4-bis(1,1-dimethylethyl)-5-hydroxyphenyl]-1,4-dihydro-4-oxoquinoline-3-carboxamide triple combination control (% Activity).

CFTR-mediated chloride transport in human intestinal epithelial enteroid cells, sequence (P13569 with tags, fused parts or gaps DEL508-508): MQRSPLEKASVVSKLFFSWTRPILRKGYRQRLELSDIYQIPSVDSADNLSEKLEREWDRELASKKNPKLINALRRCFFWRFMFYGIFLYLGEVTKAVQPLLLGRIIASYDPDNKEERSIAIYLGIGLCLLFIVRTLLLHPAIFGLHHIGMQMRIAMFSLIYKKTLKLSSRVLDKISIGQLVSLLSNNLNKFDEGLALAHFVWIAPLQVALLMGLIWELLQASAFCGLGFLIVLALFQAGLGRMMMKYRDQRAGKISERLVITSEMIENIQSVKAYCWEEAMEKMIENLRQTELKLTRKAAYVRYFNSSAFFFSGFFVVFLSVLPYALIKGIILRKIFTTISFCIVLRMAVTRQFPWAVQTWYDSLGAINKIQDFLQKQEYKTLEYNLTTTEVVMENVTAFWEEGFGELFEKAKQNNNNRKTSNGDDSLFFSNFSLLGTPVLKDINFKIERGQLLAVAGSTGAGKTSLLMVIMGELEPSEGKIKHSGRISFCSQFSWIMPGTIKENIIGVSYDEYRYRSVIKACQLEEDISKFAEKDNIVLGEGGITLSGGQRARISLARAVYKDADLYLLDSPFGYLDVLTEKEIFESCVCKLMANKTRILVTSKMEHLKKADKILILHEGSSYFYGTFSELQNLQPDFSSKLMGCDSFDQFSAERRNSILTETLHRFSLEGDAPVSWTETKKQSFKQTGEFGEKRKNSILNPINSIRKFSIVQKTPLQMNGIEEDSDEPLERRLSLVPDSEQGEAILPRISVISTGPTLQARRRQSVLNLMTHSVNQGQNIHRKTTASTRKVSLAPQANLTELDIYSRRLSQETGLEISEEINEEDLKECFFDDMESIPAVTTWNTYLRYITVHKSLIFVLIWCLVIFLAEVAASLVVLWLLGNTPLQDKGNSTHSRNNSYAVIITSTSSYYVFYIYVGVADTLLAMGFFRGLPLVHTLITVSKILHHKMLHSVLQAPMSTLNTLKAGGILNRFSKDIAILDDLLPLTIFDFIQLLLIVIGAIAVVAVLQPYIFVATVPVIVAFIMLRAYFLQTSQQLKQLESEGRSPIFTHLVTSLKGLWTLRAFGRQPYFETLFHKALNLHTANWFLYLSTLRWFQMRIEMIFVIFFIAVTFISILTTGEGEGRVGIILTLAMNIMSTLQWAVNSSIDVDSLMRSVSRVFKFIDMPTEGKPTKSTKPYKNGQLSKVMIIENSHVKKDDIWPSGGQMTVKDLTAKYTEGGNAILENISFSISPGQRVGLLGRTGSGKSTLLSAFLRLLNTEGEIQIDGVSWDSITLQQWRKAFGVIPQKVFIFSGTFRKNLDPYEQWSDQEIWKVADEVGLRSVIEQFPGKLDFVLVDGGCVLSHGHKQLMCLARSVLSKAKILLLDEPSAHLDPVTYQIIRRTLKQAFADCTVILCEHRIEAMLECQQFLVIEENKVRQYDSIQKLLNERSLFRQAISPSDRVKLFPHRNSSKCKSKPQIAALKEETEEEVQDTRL

SMILES	Ent. B Max Activity [2]	pEC50 [2]	further results
COC(=O)C1CC2(C1)CC(N1C(=O)c3cccc(c3)S(=O)(=O)Nc3nc(cc(-c4c(C)cccc4C)n3)CC[C@H]1CC(C)(C)C)C2 (stereo partly shown)			ring closure, yield after HPLC ([1]; from COC(=O)C1CC2(CC(N[C@@H](CCc3cc(-c4c(C)cccc4C)nc(NS(=O)(=O)c4cccc(C(=O)O)c4)n3)CC(C)(C)C)C2)C1, amide bond, CDMT/NMM, DMF, 48.6 mM, 18.0 h): 80%
COc1c2nc(nc1-c1c(C)cccc1C)NS(=O)(=O)c1cccc(c1)C(=O)N(Cc1cncc(N(C)C3CCC3)n1)[C@H](CC(C)(C)C)CC2			ring closure, yield after HPLC ([1]; from COc1c(CC[C@@H](CC(C)(C)C)NCc2cncc(N(C)C3CCC3)n2)nc(NS(=O)(=O)c2cccc(C(=O)O)c2)nc1-c1c(C)cccc1C, amide bond, CDMT/NMM, DMF, 13.3 mM, 72.5 h): 33%
Cc1cccc(C)c1-c1cc2nc(n1)NS(=O)(=O)c1cccc(c1)C(=O)N1Cc3cc(C(C)(C)C)ccc3[C@@H](O2)[C@H]1CC(C)C			ring closure, yield after HPLC ([1]; from Cc1cccc(C)c1-c1cc(O[C@@H]2c3ccc(C(C)(C)C)cc3CN[C@@H]2CC(C)C)nc(NS(=O)(=O)c2cccc(C(=O)O)c2)n1, amide bond, HATU/NaOtBu, THF/DMF, 25.0 °C, 3 steps): 1%
Cc1cccc(C)c1-c1cc2nc(n1)NS(=O)(=O)c1cccc(c1)C(=O)N1Cc3cc(C(C)(C)C)ccc3[C@H](O2)[C@H]1CC(C)C			ring closure, yield after HPLC ([1]; from Cc1cccc(C)c1-c1cc(O[C@H]2c3ccc(C(C)(C)C)cc3CN[C@@H]2CC(C)C)nc(NS(=O)(=O)c2cccc(C(=O)O)c2)n1, amide bond, HATU/NaOtBu, THF/DMF, 80.1 mM, 25.0 °C, 3 steps): 27%
Cc1cccc(C)c1-c1cc2nc(n1)NS(=O)(=O)c1cccc(c1)C(=O)O[C@H]1c3ccc(C(C)(C)C)cc3CN2[C@@H]1CC(C)C			ring closure, yield after HPLC ([1]; from Cc1cccc(C)c1-c1cc(N2Cc3cc(C(C)(C)C)ccc3[C@H](O)[C@H]2CC(C)C)nc(NS(=O)(=O)c2cccc(C(=O)O)c2)n1, ester bond, HATU/NaOtBu, THF/DMF, 25.0 °C, 3 steps): 4%
Cc1cccc(C)c1-c1nc2nc(c1C)OCCNC(=O)c1cccc(c1)S(=O)(=O)N2			ring closure, yield after HPLC ([1]; from Cc1cccc(C)c1-c1nc(NS(=O)(=O)c2cccc(C(=O)O)c2)nc(OCCN)c1C, amide bond, HATU/DIEA, DMF, 50.7 mM, 25.0 °C): 23%
Cc1cccc(C)c1-c1cc2cc(n1)NS(=O)(=O)c1cccc(c1)C(=O)N(C1CC3(CC3)C1)[C@H](CC(C)C)CC2 [Compound 3, (11S)-6-(2,6-Dimethylphenyl)-11-isobutyl-2,2-dioxo-12-spiro[2.3]hexan-5-yl-2 λ6-thia-3,5,12-triazatricyclo[12.3.1.14,8]nonadeca-1(18),4(19),5,7,14,16-hexaen-13-one]	+++ (+++ is >60%)	> 6.00	ring closure, yield after HPLC ([1]; from Cc1cccc(C)c1-c1cc(CC[C@@H](CC(C)C)NC2CC3(CC3)C2)cc(NS(=O)(=O)c2cccc(C(=O)O)c2)n1, amide bond, HATU/DIEA, DMF, 26.7 mM, 25.0 °C, 0.25 h): 19%
Cc1cccc(C)c1-c1nc2nc(c1F)CC[C@@H](CC(C)C)N(C1CC3(CC3)C1)C(=O)c1cccc(c1)S(=O)(=O)N2 [Compound 4, (11S)-6-(2,6-Dimethylphenyl)-7-fluoro-11-isobutyl-2,2-dioxo-12-spiro[2.3]hexan-5-yl-2 λ6-thia-3,5,12,19-tetrazatricyclo[12.3.1.14,8]nonadeca-1(18),4(19),5,7,14,16-hexaen-13-one]	+++ (+++ is >60%)	> 6.00	ring closure, yield after HPLC ([1]; from Cc1cccc(C)c1-c1nc(NS(=O)(=O)c2cccc(C(=O)O)c2)nc(CC[C@@H](CC(C)C)NC2CC3(CC3)C2)c1F, amide bond, HATU/DIEA, NMP, 100.9 mM, 25.0 °C, 20.0 h): 30%
COCCN1CCC2(CC1)CC(N1C(=O)c3cccc(c3)S(=O)(=O)Nc3nc(cc(-c4c(C)cccc4C)n3)CC[C@H]1CC(C)C)C2 [Compound 9, (11S)-6-(2,6-Dimethylphenyl)-11-isobutyl-12-[7-(2-methoxyethyl)-7-azaspiro[3.5]nonan-2-yl]-2,2-dioxo-2λ6-thia-3,5,12,19-tetrazatricyclo[12.3.1.14,8]nonadeca-1(18),4(19),5,7,14,16-hexaen-13-one]	+++ (+++ is >60%)	> 6.00	
Cc1cccc(C)c1-c1cc2nc(n1)NS(=O)(=O)c1cccc(c1)C(=O)N(CCCC(C)(C)O)CCC2C (stereo not shown) [Compound 10, 6-(2,6-Dimethylphenyl)-12-(4-hydroxy-4-methyl-pentyl)-9-methyl-2,2-dioxo-2λ6-thia-3,5,12,19-tetrazatricyclo[12.3.1.14,8]nonadeca-1(18),4(19),5,7,14,16-hexaen-13-one]	+++ (+++ is >60%)	5.52 to 6.00	
Cc1cccc(C)c1-c1cc2nc(n1)NS(=O)(=O)c1cccc(c1)C(=O)N[C@H](CC(C)C)CC2 [Compound 14]	+++ (+++ is >60%)	> 6.00	
Cc1cccc(C)c1-c1cc2nc(n1)NS(=O)(=O)c1cccc(n1)C(=O)N(C1CC3(CC3)C1)[C@H](CC(C)C)CC2 [Compound 15]	++ (++ is 30-60%)	> 6.00	
Cc1cccc(C)c1-c1cc2nc(n1)NS(=O)(=O)c1cccc(c1)C(=O)N(Cc1ccc(C(C)(C)O)cc1)CCC2C (stereo not shown) [Compound 16]	+++ (+++ is >60%)	> 6.00	

More lines, main results first:

Ent. B Max Activity [2]	pEC50 [2]	SMILES	further results
+++ (+++ is >60%)	5.52 to 6.00	Cc1cccc(C)c1-c1cc2nc(n1)NS(=O)(=O)c1cccc(c1)C(=O)N(C)CCC2C (stereo not shown) [Compound 17]	
+++ (+++ is >60%)	5.52 to 6.00	Cc1cccc(C)c1-c1cc2nc(n1)NS(=O)(=O)c1cccc(c1)C(=O)N(Cc1ncccn1)CCC2C (stereo not shown) [Compound 18]	
++ (++ is 30-60%)	> 6.00	Cc1cccc(C)c1-c1cc2nc(n1)NS(=O)(=O)c1cccc(c1)C(=O)N(C1CC3(CC3)C1)CCC2c1ccc(C(C)(C)C)cc1 (stereo not shown) [Compound 19]	
++ (++ is 30-60%)	> 6.00	Cc1cccc(C)c1-c1cc2nc(n1)NS(=O)(=O)c1cccc(c1)C(=O)N(C1CC3(CC3)C1)CC2Cc1ccc(C(C)(C)C)cc1 (stereo not shown) [Compound 20]	
++ (++ is 30-60%)	> 6.00	Cc1cccc(C)c1-c1cc2nc(n1)NS(=O)(=O)c1cccc(c1)C(=O)N(C1CC3(CC3)C1)CC[C@H]2c1ccc(C(C)(C)C)cc1 [Compound 22]	
++ (++ is 30-60%)		Cc1cccc(C)c1-c1cc2nc(n1)NS(=O)(=O)c1cccc(c1)C(=O)N(C1CC3(CC3)C1)CC[C@H]2c1ccc(C(C)(C)C)cc1 [Compound 23]	
+ (+ is <30%)		Cc1cccc(C)c1-c1cc2nc(n1)NS(=O)(=O)c1cccc(c1)C(=O)OC[C@@H](CC(C)(C)C)N2c1ccnn1C [Compound 29]	
+ (+ is <30%)		Cc1cccc(C)c1-c1cc2nc(n1)NS(=O)(=O)c1cccc(c1)C(=O)OC[C@@H](CC(C)(C)C)N2Cc1nccc(C(F)(F)F)n1 [Compound 32]	
++ (++ is 30-60%)	> 6.00	Cc1cccc(C)c1-c1cc2nc(n1)NS(=O)(=O)c1cccc(c1)C(=O)N(C1CC3(CC3)C1)CCC21CC1 [Compound 41, 6-(2,6-Dimethylphenyl)-2,2-dioxo-12-spiro[2.3]hexan-5-yl-spiro[2λ6-thia-3,5,12,19-tetrazatricyclo[12.3.1.14,8]nonadeca-1(18),4(19),5,7,14,16-hexaene-9,1′-cyclopropane]-13-one]	

Source: patent US12612416B2, “Modulators of cystic fibrosis transmembrane conductance regulator” (VERTEX PHARMACEUTICALS INCORPORATED, priority 2020, dated 2026)
